Molecules are shown by their SMILES.

Test [1] concerns LPS-induced TNF-α, IL-1β and IL-6 in spleen. As to the kind of experiment: Cytokines in spleen of mice injected with LPS, comparison to rivastigmine (Example 5). Type of test: in vivo, Balb/c mice. The note with it: for IL-1β in spleen / IL-6 in spleen / TNF-α in spleen: four hours. The method, then:
Male Balb/c mice (aged 8-9 weeks, weighing 25-30 gm) were given ladostigil (10 or 20 mg/kg) or rivastigmine (0.5 or 1 mg/kg) by gavage, or water (1 ml/100 g), followed 15 min later by an intra-peritoneal injection of LPS (10 mg/kg). Control mice were given LPS and water by gavage (1 ml/100 g). For measurement of cytokine levels in the spleen and blood the mice were sacrificed 4 h after drug administration, blood collected in heparinized tubes and centrifuged to obtain plasma and the spleen was rapidly removed and weighed. Plasma and spleen were frozen in liquid nitrogen and stored at −80° C. until use. For measurement of cytokine levels, the tissue was diluted in PBS containing 0.8% NaCl, 0.144% NaHPO4, 0.024% KH2PO4 and protease inhibitor cocktail (Sigma Israel, P8340) and homogenized in an Ultra-TURRAX® homogenizer at a speed of 24,000 rpm, centrifuged at 14000 g for 15 min at 4° C. Cytokines were detected in the supernatant by using ELISA kits for cytokines IL-1β, IL-6, and TNF-α (Biolegend) following the manufacturer's protocol. Each experiment was performed twice with 8 replicate measures in each experiment. Protein concentration in each sample was determined with Bradford reagent (Bio-RAD, 500-0006).

The next test has as its system ChE. As to the kind of experiment: Cholinesterase activity in spleen and plasma of mice (Example 4). The following applies: 10 mg/kg oral, two hours, ± SD, not significant. Type of test: in vivo, Balb-C mice. The protocol: Ladostigil 10 mg/kg or saline 1 mg/kg were given by gavage to groups of 6 Balb-C male mice weighing 24-30 gm. The mice were sacrificed 120 min later when ChE inhibition reaches its peak. The spleen was rapidly removed and weighed and blood was centrifuged at 14000 rpm at room temperature for 4 min to provide plasma. Phosphate buffer was added to the spleen at a ratio of 1 mg/ml and the tissue was homogenized at a speed of 24,000 rpm in cold phosphate buffer pH=7 containing 0.1% Triton and centrifuged at 14000 rpm. Aliquots of plasma and the supernatant from the spleen were incubated with acetylthiocholine and dinitro benzoic acid in phosphate buffer pH 7 and the rate of development of the yellow color was measured as described by Ellman et al, (1961). Percent inhibition of ChE activity was calculated by comparison with that of control mice given with saline. Protein concentration was determined by means of Bradford reagent (Bio-RAD, 500-0006) and results represented as activity/mg protein.

Test [2] concerns cholinesterase (mostly BuChE). The test is described as follows: ChE inhibition in gerbil plasma (Ellman). Type of test: in vivo, Psammomys obesus. The following applies: 17 mg/kg/day, three hours after the last gavage, vs same gerbil before treatment. The protocol:
Male Psammomys obesus gerbils aged 3.5-4 months were given a high-energy diet consisting of 938.5 g/Kg version of 2018SC+F Harlan Tekled Ltd., USA, supplemented with soybean oil to a final fat concentration of 6%. After one week on the diet, blood was taken for measurement of glucose and ChE activity. Half of the animals were given ladostigil (17 mg/kg/day) by gavage while the remainder received tap water by the same route. Blood was taken from the tail once weekly for measurement of glucose as described in Kalman R., et al, (2001). Lab Anim. 35:346-352. After three weeks of treatment the animals they were deeply anesthetized, blood was taken by cardiac puncture for measurement of ChE activity, glucose and insulin levels and the pancreas removed for section and staining with haematoxylin and eosin and the number of islets counted. Blood glucose of 11 animals had reached values exceeding 200 mg/dL after one week on the high energy diet and the average value for the whole group was 300±27 mg/dL. […] It is noted, that cholinesterase activity in plasma of Psammomys obesus is mostly mediated by butyrylcholinesterase (BuChE) rather than by AChE.

A further test has as its target BuChE (Homo sapiens, UniProt P06276). The test is described as follows: Relative potency in inhibiting BuChE and AChE.
The next test deals with IL-1β and MPO in colon. As to the kind of experiment: Cytokines and myeloperoxidase in colon of DSS-treated mice. The following applies: 8th day of DSS ingestion, 5 vs 10 mg/kg. Type of test: in vivo. The method, then: TNF-α, IL-6, and IL-1β levels in homogenized colon were measured by means of a BioLegend ELISA Mouse kit. One cm of colon was homogenized in ice-cold PBS buffer containing protease inhibitor cocktail (Sigma, St. Louis, Mo., USA; dilution 1:100) using a Polytron homogenizer, and then centrifuged for 15 min at 14,000 rpm at 4° C. Supernatants were diluted 1:5 in diluent buffer supplied in the kit and applied to 96-well MaxiSorb Elisa plates according to manufacturer's protocol. Total protein concentration in the tissue supernatant was measured by means of a BCA kit. Levels of cytokines are expressed as pg/mg total tissue protein.
Neutrophil infiltration was monitored by measuring myeloperoxidase (MPO) activity in colon segments according to the protocol described by Bradley (1982) in 96-well micro-titer plates by mixing 10 μl of the supernatant with 290 μl of o-dianisidine dihydrochloride solution. Data were interpolated from a MPO standard curve. MPO activity was expressed as units per μg total protein measured in the sample by Pierce BCA Protein Assay Kit as described above.

Setting [3] is: ladostigil 10 mg/kg + LPS 10 mg/kg.
Setting [4] is: ladostigil 20 mg/kg + LPS 10 mg/kg.

BuChE, sequence (P06276 29-602): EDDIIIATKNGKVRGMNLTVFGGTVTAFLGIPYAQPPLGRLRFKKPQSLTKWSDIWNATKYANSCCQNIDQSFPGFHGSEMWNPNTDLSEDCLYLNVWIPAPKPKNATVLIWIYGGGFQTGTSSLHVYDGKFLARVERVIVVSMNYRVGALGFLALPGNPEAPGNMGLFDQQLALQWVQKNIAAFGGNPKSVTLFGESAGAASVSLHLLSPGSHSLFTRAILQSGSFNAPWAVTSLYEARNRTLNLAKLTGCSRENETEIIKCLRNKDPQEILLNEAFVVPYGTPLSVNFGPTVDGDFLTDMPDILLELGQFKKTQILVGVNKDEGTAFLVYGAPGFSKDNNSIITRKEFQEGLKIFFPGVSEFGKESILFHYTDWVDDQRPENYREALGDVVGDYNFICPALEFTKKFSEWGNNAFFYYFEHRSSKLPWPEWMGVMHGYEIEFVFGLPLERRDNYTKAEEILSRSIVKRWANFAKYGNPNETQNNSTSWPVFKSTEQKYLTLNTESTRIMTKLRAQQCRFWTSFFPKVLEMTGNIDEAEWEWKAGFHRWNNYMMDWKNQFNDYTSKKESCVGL

With `C#CCN[C@@H]1CCc2ccc(OC(=O)N(C)CC)cc21` [Ladostigil, R(+)-6-(N-methyl, N-ethyl-carbamoyloxy)-N′-propargyl-1-aminoindan], in test [1] (ladostigil 10 mg/kg + LPS), the “Reduction of IL-1β levels in spleen” value stood at 31.1±4.3%, the “Reduction of IL-6 levels in spleen” value is reported as 50.0±7.2% and the “Reduction of TNF-α levels in spleen” value is given as 49.7±7.6%. For the same compound, in test [1] (setting [3]), the IL-1β in spleen was 401 ± 40 pg/mg, the IL-6 in spleen turned out to be 351 ± 50 pg/mg and the TNF-α in spleen is recorded as 9.6 ± 1.5 pg/mg. Also, in test [1] (ladostigil 20 mg/kg + LPS), the “Effect on TNF-α or IL-1β levels in spleen” value is given as “had no effect” and the “Reduction of IL-6 levels in spleen” value was found to be 42.7±8.3%. Moreover, in test [1] (setting [4]), the IL-1β in spleen came out at 591 ± 17 pg/mg, the IL-6 in spleen was 454 ± 59 pg/mg and the TNF-α in spleen is 17.1 ± 1.9 pg/mg. For the same compound, in the test with ChE, the “Inhibition of ChE in plasma” value turned out to be 5.7±2.1% and the “Inhibition of ChE in spleen” value was 7.8±6.4%. Further, in test [2], the “ChE inhibition in plasma” value is listed as 50±3%. Besides, at BuChE, the “Potency in inhibiting BuChE relative to AChE” value is “at least ten times more potent in inhibiting BuChE than in inhibiting AChE”. In addition, the “Reduction of IL-1β levels and MPO activity in colon” value with IL-1β and MPO in colon is 5 mg/kg was more effective than 10 mg/kg.

The record behind these values is patent US9867798B2, “Ladostigil therapy for immunomodulation” (priority 2012, dated 2018).
